These results are taken from US20080139463A1, “Use Of [D-Meala]3-[Etval]4-Cyclosporin For The Treatment Of Hepatitis C Infection And Pharmaceutical Composition Comprising Said [D-Meala]3-[Etval]4-Cyclosporin” (priority 2005, published 2008).

Values after ≈ are worked out from the molar mass of the structure shown. A value given as a limit tells only on which side of the number the result lay.

Data set [1] has as its system Jc1-Luc virus (full-length chimeric genome between HCV strains J6 and JFH1). The experiment in a line: Antiviral luciferase assay in hepatoma cells infected with recombinant HCV. Format: cell-based. Particulars: infected Huh-7-Lunet and Huh-7.5 cells, 72 hours, FIGS. 1 and 2.
Description: The method used hepatoma cells that had been infected with an infectious full length chimeric HCV construct or the same virus that was modified to carry a luciferase receptor gene.
Infectious HCV viruses of full-length chimeric genome between HCV strains J6 and JFH1 (Jc1) were used to inoculate the hepatoma cells of the assays. The construct of Jc1 virus was also modified to obtain a bicistronic genome carrying a luciferase reporter gene (Jc1-Luc).
Assays used either Huh-7-Lunet or Huh-7.5 cells (Lohmann et al., Science 285(5424), (1999), 110-113). Cells were grown in Dulbecco's modified Eagle's Medium (DMEM; Gibco) supplemented with 10% heat-inactivated fetal bovine serum (FCS) (Integro), 1× non-essential amino acids (Gibco), 100 IU/ml penicillin (Gibco), 100 μg/ml streptomycin (Gibco) or 25 μg/ml hygromycin (Gibco) for Huh-mono cells at 37° C. and 5% CO2. For antiviral (replication) assays, Huh-7-Lunet and Huh-7.5 cells were seeded at a density of 2×104 or 4×10^4 cells per well of a 12-well plate. […]
The inhibition of viral replication were estimated by luciferase assay. […] Firefly luciferase activity was measured according to Krieger et al. (J Virol, 75(10), (2001), 4614-4624). […] Finally, luminescence was measured by using a Lumat LB9507 luminometer (Berthold) for 20 samples.
A further data set concerns CD4^+ PBMCs. The experiment in a line: Mixed lymphocyte reaction, [3H]-thymidine incorporation. Format: cell-based. Particulars: for immunosuppressive activity (interpretation of Table 2): mixed lymphocyte reaction; for % Stimulation (relative): cyclosporin 1 μg/ml, five days. The method, then: In this assay, cyclosporins were dissolved in ethanol (10 mg/ml). Freshly isolated CD4^+ PBMCs from two healthy donors were mixed subsequent to inactivation by irradiation of one of the populations (stimulator cells; S). […] R) was determined by [^3H]-thymidine incorporation. The assay was conducted reciprocally with the two cell populations, each being inactivated and stimulated in turn. Stimulation (%) of responder cells was calculated by the formula: […] Sample refers to a mixture of stimulator and responder cells. Background represents a control in which only stimulator cells are mixed.
(In general: Dividing cells build labelled thymidine or BrdU into new DNA.)

Data set [2] in a line: MTT assay of cytostatic/cytotoxic effect in Huh 5-2 cells. The following applies: human. The source says:
Cell density and cytostatic effects were estimated in parallel cultures in regular 96-well plates (Beckton-Dickinson) using the MTT assay (CellTiter 96® AQueous Non-Radioactive Cell Proliferation Assay, Promega). In this assay, 3-(4,5-dimethylthiazol-2-yl)-5-(3-carboxymethoxy-phenyl)-2-(4-sulfophenyl)-2H-tetrazolium (MTS) is bioreduced to a formazan that is quantitated at 498 nm in a plate reader. Formazan production is directly correlated with number of life cells.
(§1) Results from these experiments permitted calculation of EC50 for the different cyclosporins, which is the effective concentration required to inhibit HCV replicon replication by 50%, and of CC50, which is the concentration required that inhibits the proliferation of exponentially growing cells by 50%, and a selectivity index SI, which is the ratio between CC50 and EC50.
On the technique in general: Formazan colour is commonly taken as a measure of viable cells.

A short description of data set [3]: Initial phase I clinical studies, safety of oral doses. Format: in vivo. Particulars: oral doses of 50 to 1600 mg; not dose-related. The protocol:
Initial phase I clinical studies were carried out to assess the safety of oral doses of [D-MeAla]^3-[EtVal]^4-CsA, and to determine the pharmacokinetic profile and safety profile of the drug substance. […] These side effects were not dose-related.

For data set [4], the target named is T1, human recombinant cyclophilin A (Homo sapiens, UniProt P62937).
T1 construct: purchased Sigma
Description: PPlase activity of cyclophilin A, tight binding inhibitor fit (Garcia-Echverria et al.). The following applies: for Et (total enzyme concentration): fit parameter of tight binding equation. Format: biochemical. The method, then: Commercial human recombinant cyclophilin A (Sigma) was used in the assays. PPlase activity of cyclophilins was determined using a chymotrypsin-coupled spectrophotometric assay according to Garcia-Echverria et al. (BBRC, 191, (1993), 70-75). This method is based on the high trans selectivity of chymotrypsin for peptides of the type N-succinyl-ala-ala-pro-phe-p-nitroanilide. The peptides cleavage liberated the para-nitroaniline moiety that could be detected and quantitated at 390 nm. The hydrolysis of the cis form was limited by the rate of cis-trans isomerisation carried out by cyclophilin A. The peptide was made up in a solution of […] LiCl in 2,2,2-trifluoroethanol at 470 mM to enhance the cis conformer peptides population. The assay was performed on the split beam spectrophotometer and the water bath was set at 5° C. Cyclophilin A (7500 pmol/mg total enzyme concentration; Sigma) were dissolved at 20 nM in a buffer (35 mM HEPES and 0.26 mg/ml chymotrypsin (specific activity 50 units/mg), pH 7.8 with KOH) and were incubated for 6 minutes at room temperature followed by 54 minutes in the water bath. […] Then 3.5 ml of the incubated cyclophilin was added to the sample cuvette. […] Peptide was added at 25 μM to initiate the reaction and the change in absorbance was monitored at 10 data points per second. As a control, rates were also determined for a parallel reaction that lacked cyclophilin. These blank rates of peptide hydrolysis (i.e. in the absence of cyclophilin) were subtracted from rates in the presence of cyclophilin A.
The initial rates obtained from the PPlase assays were analysed by first order regression analysis by using first order transformation of the traces of the time course of the change in the absorbance at 390 nm. Total enzyme concentration (Et), the inhibitor dissociation constant (Ki) and the rate constant for the rate limiting reaction was calculated with the software FigSyS (2003, Biosoft) by fitting the data obtained from the regression analysis in the tight binding inhibitor multiprotein equation.
v=k*Et*P−k*(−b−sqrt(b*b−4*c))/2
where b is defined as b=−(Et*P+I+Ki) and c is c=Et*P*I. Once Et, Ki and k were calculated by the computer for a given set of data, a graphic representation of the data was plotted and the line fitted to the points assuming tight inhibitor binding to a single protein, defined by the following equations:
v=K*Et*P−K(B−sqrt(B*B−4*C))/2
where B=Et*P+I+Ki and C=Et*P*I.

Data set [5] deals with HCV replicon in Huh-9-13 cells. The experiment in a line: HCV replicon clearance and rebound in Huh-9-13 cells. Format: cell-based. Particulars: 0.5 or 1 μg/ml for 7 consecutive passages, then G418 1000 μg/ml for 2 passages; FIG. 3. On the technique in general: A replicon is a self-replicating genome or part of one, used to study replication in cells.
Description: Assays used Huh-9-13 cells, human hepatoma cells (Huh-7) (Lohmann et al., Science 285(5424), (1999), 110-113) Cells were grown in the usual complete medium DMEM without G418 pressure.
RT-PCR were performed on extracts of viral RNA of samples taken at different passage points. The forward and reverse primers used were 5′-[sequence]-3′ and 5′-[sequence]-3′, respectively. The fluorogenic probe was 5′-[sequence]-3′. As an internal control, a plasmid containing part of the neomycin phosphotransferase gene sequence was used. Results were analysed and expressed as a quantity of replicon RNA (ng) per 1'000 cells and used to draft a graph.
Data set [6] concerns HCV replicon in MH-14 cells. Particulars: cited from earlier work; for HCV RNA accumulation inhibited: Northern blot and quantitative RT-PCR, MH-14 cells.
Data set [7] concerns HCV replicon in Huh 5-2 cells. Particulars: EC50 derived from RNA titers by quantitative RT-PCR; asterisk = lower of two independently determined values. The method, then:
(§2) Assays used Huh 5-2 cells that contained a bicistronic RNA encoding a firefly luciferase-ubiquitin-neomycin phosphotransferase fusion protein and HCV proteins NS3-5. The viral sequences originated from an HCV virus of genotype 1b. Cells were cultured in RPMI 1640 medium (Gibco) supplemented with 10% fetal calf serum, 2 mM glutamine (Life Technologies), 1× non-essential amino acids (Life Technologies), 100 u/ml penicillin, 100 μg/ml streptomycin and 250 μg/ml G418 (Geneticin, Life Technologies) at 37° C. and 5% CO2. For antiviral (replication) assays, cells were seeded at a density of 7000 cells/well in 96-well View Plates™ (Packard) in the same medium except for G418. After a 24-h incubation, medium was removed, serial dilutions of test compounds in medium were added, and cells were incubated for an additional 72 h.
The fluorogenic probe was 5′-[…]-3′.
as §1

Data set [8] concerns luciferase-containing HCV minireplicon in Huh 5-2 cells. The protocol:
as §2
Antiviral effects were estimated either by luciferase assay or quantitative RT-PCR. To carry out luciferase assays, medium was removed, and cells were washed with PBS. Subsequent to lysis in 50 μl of Glo-lysis buffer (Promega) for 15 min, 50 μl of Stead-Glo Luciferase Assay Reagent (Promega) were added to cell lysates. Luciferase activity was measured using a luminometer, and the signal from each test well was expressed as a percentage of the signal measured in wells of cultures not exposed to a test compound. […]

The term CC50 denotes the concentration at which the toxic effect on the cells reaches its halfway point. Lower therefore signals harm at low concentration. For orientation: Ki means the equilibrium dissociation constant of an inhibitor or competing ligand from its target.

T1 sequence (P62937 whole entry): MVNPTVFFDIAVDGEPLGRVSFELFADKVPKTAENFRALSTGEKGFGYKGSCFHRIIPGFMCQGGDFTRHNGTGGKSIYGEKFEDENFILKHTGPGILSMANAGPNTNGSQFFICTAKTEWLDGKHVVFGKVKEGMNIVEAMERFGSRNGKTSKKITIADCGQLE

As to `C/C=C/C[C@@H](C)[C@@H](O)[C@H]1C(=O)N[C@@H](CC)C(=O)N(C)[C@H](C)C(=O)N(CC)[C@@H](C(C)C)C(=O)N[C@@H](C(C)C)C(=O)N(C)[C@@H](CC(C)C)C(=O)N[C@@H](C)C(=O)N[C@H](C)C(=O)N(C)[C@@H](CC(C)C)C(=O)N(C)[C@@H](CC(C)C)C(=O)N(C)[C@@H](C(C)C)C(=O)N1C` [[D-MeAla]^3-[EtVal]^4-CsA], the antiviral activity result in data set [1] is “dose-dependent antiviral activity”. Besides, the “immunosuppressive activity (interpretation of Table 2)” value in the data set with CD4^+ PBMCs is “essentially devoid of immunosuppressive activity”. In [2] (Huh 5-2 cells), the CC50 was above 27 µg/mL. Moreover, the side effects entry in [3] is “Mild and short-lived side effects were observed including nausea, vomiting, abdominal pain, mild headaches”. The “k (rate constant for the rate limiting reaction)” value in [4] (cyclophilin A) came to 0.16 ± 0.0074 s⁻¹. The “Et (total enzyme concentration)” value in data set [4] came out at 7500 pmol/mg. In data set [5], the “outcome of treated cultures in the presence of G418 (rebound phase)” value was “the cultures died”.
For `C/C=C/C[C@@H](C)C(=O)[C@H]1C(=O)N[C@@H](C(C)C)C(=O)N(C)CC(=O)N(C)[C@@H](CC(C)C)C(=O)N[C@@H](C(C)C)C(=O)N(C)[C@@H](CC(C)C)C(=O)N[C@@H](C)C(=O)N[C@H](C)C(=O)N(C)[C@@H](CC(C)C)C(=O)N(C)[C@@H](CC(C)C)C(=O)N(C)[C@@H](C(C)C)C(=O)N1C` [PSC 833], in data set [6], the “HCV RNA accumulation inhibited” value is “not”.
Cyclosporin A [CsA]: in [1], the antiviral activity result is “dose-dependent antiviral activity”. For the same molecule, the “HCV RNA titer reduction” value in data set [6] (1 μg/ml, 7-day exposure) is given as “about 200 fold”. Further, the “HCV RNA accumulation inhibited” value in [6] is “inhibited”. Also, the “k (rate constant for the rate limiting reaction)” value in data set [4] (cyclophilin A) was determined as 0.17 ± 0.0069 s⁻¹. Moreover, in data set [4], the “Et (total enzyme concentration)” value amounted to 7500 pmol/mg.
As to `C/C=C/C[C@@H](C)[C@@H](O)[C@H]1C(=O)N[C@@H](CC)C(=O)N(C)CC(=O)N(C)[C@@H]([C@@H](C)CC)C(=O)N[C@@H](C(C)C)C(=O)N(C)[C@@H](CC(C)C)C(=O)N[C@@H](C)C(=O)N[C@H](C)C(=O)N(C)[C@@H](CC(C)C)C(=O)N(C)[C@@H](CC(C)C)C(=O)N(C)[C@@H](C(C)C)C(=O)N1C` [[MeIle]^4-CsA], the results for the “% Stimulation (relative)” value with CD4^+ PBMCs (co-culture R1 × S2) and in the data set with CD4^+ PBMCs (co-culture R2 × S1) were 84% and 75%, respectively. In the data set with CD4^+ PBMCs, the “immunosuppressive activity (interpretation of Table 2)” value was “essentially devoid of immunosuppressive activity”. The molecule further yielded a CC50 in [2] of 14 µg/mL (≈ 11.6 µM). For the same molecule, in data set [6] (compared with CsA), the “effectiveness in reducing HCV RNA titer” value was “about equally as effective as CsA”. In data set [7], this molecule yielded an SI values of 73. Also, the “EC50 (μg/ml) +/− Std. Dev.” value in [8] (luciferase assay, Huh 5-2 cells, 72 h) turned out to be 0.22 µg/mL (≈ 0.183 µM). Also, the Selectivity index in data set [8] (ratio between CC50 and EC50, luciferase and MTT assays) came to 64. Moreover, the “k (rate constant for the rate limiting reaction)” value in data set [4] (cyclophilin A) amounted to 0.17 ± 0.0068 s⁻¹. The Ki in data set [4] (cyclophilin A, inhibitor 2-50 nM) amounted to 2.11 ± 0.32 nM. Further, the “Et (total enzyme concentration)” value in data set [4] is recorded as 7500 pmol/mg.
